This test concerns the target T1, Met kinase (Homo sapiens, UniProt P08581).
T1 construct: 6His (N); purchased Upstate 14-526; host or cells: Sf21 insect cells (S. frugiperda), baculovirus
In words: Met kinase inhibition (enzyme assay), flashplate method. The class given is biochemical. From the text: Measurement of Met Kinase Activity
According to the manufacturer's data (Met, active, upstate, catalogue No. 14-526), Met kinase is expressed for the purposes of protein production in insect cells (Sf21; S. frugiperda) and subsequent affinity-chromatographic purification as “N-terminal 6His-tagged” recombinant human protein in a baculovirus expression vector.
The kinase activity can be measured using various available measurement systems. In the scintillation proximity method (Sorg et al., J. of Biomolecular Screening, 2002, 7, 11-19), the flashplate method or the filter binding test, the radioactive phosphorylation of a protein or peptide as substrate is measured using radioactively labelled ATP (^32P-ATP, ^33P-ATP). In the case of the presence of an inhibitory compound, a reduced radioactive signal, or none at all, can be detected. Furthermore, homogeneous time-resolved fluorescence resonance energy transfer (HTR-FRET) and fluoroescence polarisation (FP) technologies can be used as assay methods (Sills et al., J. of Biomolecular Screening, 2002, 191-214).
Flashplate Method (Met Kinase)
The test plates used are 96-well Flashplate® microtitre plates from Perkin Elmer (Cat. No. SMP200). The components of the kinase reaction described below are pipetted into the assay plate. The Met kinase and the substrate poly Ala-Glu-Lys-Tyr, (pAGLT, 6:2:5:1), are incubated for 3 hrs at room temperature with radioactively labelled ^33P-ATP in the presence and absence of test substances in a total volume of 100 μl. The reaction is terminated using 150 μl of a 60 mM EDTA solution. After incubation for a further 30 min at room temperature, the supernatants are filtered off with suction, and the wells are washed three times with 200 μl of 0.9% NaCl solution each time. The measurement of the bound radioactivity is carried out by means of a scintillation measuring instrument (Topcount NXT, Perkin-Elmer).
The full value used is the inhibitor-free kinase reaction. This should be approximately in the range 6000-9000 cpm. The pharmacological zero value used is staurosporin in a final concentration of 0.1 mM. The inhibitory values (IC50) are determined using the RS1_MTS program.
Kinase reaction conditions per well: • 30 μl of assay buffer • 10 μl of substance to be tested in assay buffer with 10% of DMSO • 10 μl of ATP (final concentration 1 μM cold, 0.35 μCi of ^33P-ATP) • 50 μl of Met kinase/substrate mixture in assay buffer; • (10 ng of enzyme/well, 50 ng of pAGLT/well)
50 mM HEPES • 3 mM magnesium chloride • 3 μM sodium orthovanadate • 3 mM manganese(II) chloride • 1 mM dithiothreitol (DTT)
pH=7.5 (to be set using sodium hydroxide)
60 mM Titriplex III (EDTA)
Met kinase: Upstate, Cat. No. 14-526, Stock 1 μg/10 μl; spec. activity 954 U/mg;
Poly-Ala-Glu-Lys-Tyr, 6:2:5:1: Sigma Cat. No. P1152
Pharmacological Data Met Kinase Inhibitions (Enzyme Assay)
T1 sequence (P08581 974-1390 limits assumed): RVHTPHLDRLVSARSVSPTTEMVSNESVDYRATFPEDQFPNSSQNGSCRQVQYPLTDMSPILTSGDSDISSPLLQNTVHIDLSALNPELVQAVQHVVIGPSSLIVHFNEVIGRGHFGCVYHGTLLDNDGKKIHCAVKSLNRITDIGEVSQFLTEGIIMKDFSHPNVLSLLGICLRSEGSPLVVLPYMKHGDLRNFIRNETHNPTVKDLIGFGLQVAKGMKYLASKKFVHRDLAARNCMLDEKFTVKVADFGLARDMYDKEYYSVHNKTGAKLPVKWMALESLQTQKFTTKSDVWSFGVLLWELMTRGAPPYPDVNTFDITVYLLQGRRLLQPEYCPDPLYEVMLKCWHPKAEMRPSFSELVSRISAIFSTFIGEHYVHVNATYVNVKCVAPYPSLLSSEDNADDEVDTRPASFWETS
In turn, `CCOC(=O)Nc1cccc(Cn2nc(-c3cccc(CC(=O)NCCCOC)c3)ccc2=O)c1` [A70] returned an IC50 of 10 to 1000 nM.

For `CCOC(=O)Nc1cccc(Cn2nc(-c3cccc(CC(=O)NCCCCO)c3)ccc2=O)c1` [A71], the IC50 fell in the range of 10 to 1000 nM.

For `CCOC(=O)Nc1cccc(Cn2nc(-c3cccc(CC(=O)NCCO)c3)ccc2=O)c1` [A72], the IC50 lay within 10 to 1000 nM.

`CCOC(=O)Nc1cccc(Cn2nc(-c3ccc(CNC(=O)CNC(C)=O)cc3)ccc2=O)c1` [A75, ethyl[3-(3-{4-[(2-acetylaminoacetylamino)methyl]phenyl}-6-oxo-6H-pyridazin-1-ylmethyl)phenyl]carbamate] displayed an IC50 of 10 to 1000 nM.

In turn, `CCOC(=O)Nc1cccc(Cn2nc(-c3ccc(CNC(=O)Cn4ccccc4=O)cc3)ccc2=O)c1` [A76] returned an IC50 of 10 to 1000 nM.

Take `CCOC(=O)Nc1cccc(Cn2nc(-c3ccc(CNC(=O)Cc4nnn[nH]4)cc3)ccc2=O)c1` [A77]: the IC50 was 10 to 1000 nM.

Compound `CCOC(=O)Nc1cccc(Cn2nc(-c3ccc(CNC(=O)CCNC=O)cc3)ccc2=O)c1` [A78] yielded an IC50 of 10 to 1000 nM.

The compound `CCOC(=O)Nc1cccc(Cn2nc(-c3ccc(CNC(=O)Cn4cnnn4)cc3)ccc2=O)c1` [A79] yielded a concentration for half-maximal inhibition (IC50) of 10 to 1000 nM.

For the compound `CCOC(=O)Nc1cccc(Cn2nc(-c3ccc(CNC(=O)CN(C)C)cc3)ccc2=O)c1` [A80], the half-inhibitory concentration (IC50) was 10 to 1000 nM.

For `CCOC(=O)Nc1cccc(Cn2nc(-c3ccc(CNC(=O)COC)cc3)ccc2=O)c1` [A81], the IC50 lay in the range of 10 to 1000 nM.

Turning to `CCOC(=O)Nc1cccc(Cn2nc(-c3ccc(CNC(=O)CN4CCOCC4)cc3)ccc2=O)c1` [A82], the IC50 lay within 10 to 1000 nM.

In the case of `CCOC(=O)Nc1cccc(Cn2nc(-c3ccc(CNC(=O)CCN(C)C)cc3)ccc2=O)c1` [A83], the IC50 lay within 10 to 1000 nM.

Consider `CCOC(=O)Nc1cccc(Cn2nc(-c3ccc(CNC(=O)CCOC)cc3)ccc2=O)c1` [A84], for which the IC50 was in the range of 10 to 1000 nM.

As for `CCOC(=O)Nc1cccc(Cn2nc(-c3ccc(CNC(=O)CO)cc3)ccc2=O)c1` [A85], the half-maximal inhibitory concentration (IC50) lay in the range of 10 to 1000 nM.

As for `CCOC(=O)Nc1cccc(Cn2nc(-c3ccc(CNC(=O)CN4CCN(C(=O)OC(C)(C)C)CC4)cc3)ccc2=O)c1` [A86], the IC50 lay in the range of 10 to 1000 nM.

The compound `CCOC(=O)Nc1cccc(Cn2nc(-c3ccc(CNC(=O)CCN4CCCCC4)cc3)ccc2=O)c1` [A87] displayed a half-inhibitory concentration (IC50) of 10 to 1000 nM.

`CCOC(=O)Nc1cccc(Cn2nc(-c3cccc(CNC(=O)CNC(C)=O)c3)ccc2=O)c1` [A93] yielded a 50% inhibitory concentration (IC50) of 10 to 1000 nM.

As for `CCOC(=O)Nc1cccc(Cn2nc(-c3cccc(CNC(=O)Cn4ccccc4=O)c3)ccc2=O)c1` [A94], the half-maximal inhibitory concentration (IC50) was in the range of 10 to 1000 nM.

Take `CCOC(=O)Nc1cccc(Cn2nc(-c3cccc(CNC(=O)Cn4cnnn4)c3)ccc2=O)c1` [A95]: the IC50 lay in the range of 10 to 1000 nM.

`CCOC(=O)Nc1cccc(Cn2nc(-c3cccc(CNC(=O)Cc4nnn[nH]4)c3)ccc2=O)c1` [A96] gave an IC50 of 10 to 1000 nM.

For `CCOC(=O)Nc1cccc(Cn2nc(-c3cccc(CNC(=O)CNC(=O)OC(C)(C)C)c3)ccc2=O)c1` [A97], the half-inhibitory concentration (IC50) lay in the range of 10 to 1000 nM.

For `CCOC(=O)Nc1cccc(Cn2nc(-c3cccc(CNC(=O)CN4CCOCC4)c3)ccc2=O)c1` [A98], the IC50 fell in the range of 10 to 1000 nM.

On to `CCOC(=O)Nc1cccc(Cn2nc(-c3cccc(CNC(=O)COC)c3)ccc2=O)c1` [A99], for which the concentration for half-maximal inhibition (IC50) was 10 to 1000 nM.

Consider `CCOC(=O)Nc1cccc(Cn2nc(-c3cccc(CNC(=O)CCOC)c3)ccc2=O)c1` [A100], for which the 50% inhibitory concentration (IC50) fell in the range of 10 to 1000 nM.

Take `CCOC(=O)Nc1cccc(Cn2nc(-c3cccc(CNC(=O)CO)c3)ccc2=O)c1` [A101]: the concentration for half-maximal inhibition (IC50) fell in the range of 10 to 1000 nM.

Regarding `CCOC(=O)Nc1cccc(Cn2nc(-c3cccc(CNC(=O)CN(C)C)c3)ccc2=O)c1` [A102], the half-inhibitory concentration (IC50) lay within 10 to 1000 nM.

`CCOC(=O)Nc1cccc(Cn2nc(-c3cccc(CNC(=O)CCN(C)C)c3)ccc2=O)c1` [A103] displayed a half-maximal inhibitory concentration (IC50) of 10 to 1000 nM.

For the compound `CCOC(=O)Nc1cccc(Cn2nc(-c3cccc(CNC(=O)CCNC=O)c3)ccc2=O)c1` [A104], the IC50 was 10 to 1000 nM.

As for `CCOC(=O)Nc1cccc(Cn2nc(-c3cccc(CNC(=O)CCO)c3)ccc2=O)c1` [A105], the IC50 was 10 to 1000 nM.

In turn, `CCOC(=O)Nc1cccc(Cn2nc(-c3cccc(CNC(=O)CN4CCN(C)CC4)c3)ccc2=O)c1` [A106] displayed an IC50 of 10 to 1000 nM.

Regarding `CCOC(=O)Nc1cccc(Cn2nc(-c3cccc(CNC(=O)CCN(CC)CC)c3)ccc2=O)c1` [A107], the IC50 lay in the range of 10 to 1000 nM.

For `CCOC(=O)Nc1cccc(Cn2nc(-c3cccc(CNC(=O)CCN4CCN(C(=O)OC(C)(C)C)CC4)c3)ccc2=O)c1` [A108], the half-maximal inhibitory concentration (IC50) fell in the range of 10 to 1000 nM.

Turning to `CCOC(=O)Nc1cccc(Cn2nc(-c3cccc(CNC(=O)CCN4CCCCC4)c3)ccc2=O)c1` [A109], the concentration for half-maximal inhibition (IC50) lay within 10 to 1000 nM.

As to `CCOC(=O)Nc1cccc(Cn2nc(-c3cccc(CNC(=O)CN4CCCCC4)c3)ccc2=O)c1` [A110], the IC50 was in the range of 10 to 1000 nM.

`CCOC(=O)Nc1cccc(Cn2nc(-c3cccc(CO)c3)ccc2=O)c1` [A122, ethyl{3-[3-(3-hydroxymethylphenyl)-6-oxo-6H-pyridazin-1-ylmethyl]phenyl}carbamate] showed an IC50 of 10 to 1000 nM.

With `CCOC(=O)Nc1cccc(Cn2nc(-c3ccc(CO)cc3)ccc2=O)c1` [A123, ethyl{3-[3-(4-hydroxymethylphenyl)-6-oxo-6H-pyridazin-1-ylmethyl]phenyl}carbamate], the IC50 lay in the range of 10 to 1000 nM.

As for `CCOC(=O)Nc1cccc(Cn2nc(-c3ccc(C(=O)NCCCCN)cc3)ccc2=O)c1` [A129, ethyl(3-{3-[4-(4-aminobutylcarbamoyl)phenyl]-6-oxo-6H-pyridazin-1-ylmethyl}phenyl)carbamate], the IC50 lay in the range of 10 to 1000 nM.

Consider `CCOC(=O)Nc1cccc(Cn2nc(-c3ccc(C(=O)NCCCN)cc3)ccc2=O)c1` [A130], for which the 50% inhibitory concentration (IC50) is 10 to 1000 nM.

For `CCOC(=O)Nc1cccc(Cn2nc(-c3ccc(CNC(=O)CCN)cc3)ccc2=O)c1` [A131], the IC50 was 10 to 1000 nM.

Take `CCOC(=O)Nc1cccc(Cn2nc(-c3ccc(C(=O)NCCN)cc3)ccc2=O)c1` [A132]: the IC50 is 10 to 1000 nM.

Compound `CCOC(=O)Nc1cccc(Cn2nc(-c3cccc(CNC(=O)CN)c3)ccc2=O)c1` [A133] returned a 50% inhibitory concentration (IC50) of 10 to 1000 nM.

Compound `CCOC(=O)Nc1cccc(Cn2nc(-c3ccc(CNC(=O)CN)cc3)ccc2=O)c1` [A134] came in with an IC50 of 10 to 1000 nM.

Compound `CCOC(=O)Nc1cccc(Cn2nc(-c3cccc(CNC(=O)CCN)c3)ccc2=O)c1` [A135] yielded an IC50 of 10 to 1000 nM.

As for `CCOC(=O)Nc1cccc(Cn2nc(-c3cccc(C(=O)NCCCCN)c3)ccc2=O)c1` [A136], the IC50 lay in the range of 10 to 1000 nM.

In turn, `CCOC(=O)Nc1cccc(Cn2nc(-c3cccc(C(=O)NCCCN)c3)ccc2=O)c1` [A137] displayed an IC50 of 10 to 1000 nM.

In the case of `CCOC(=O)Nc1cccc(Cn2nc(-c3cccc(C(=O)NCCN)c3)ccc2=O)c1` [A138], the IC50 fell in the range of 10 to 1000 nM.

Consider `CCOC(=O)Nc1cccc(Cn2nc(-c3cccc(CC(=O)NCCCCN)c3)ccc2=O)c1` [A139], for which the IC50 lay in the range of 10 to 1000 nM.

The compound `CCOC(=O)Nc1cccc(Cn2nc(-c3cccc(CC(=O)NCCCN)c3)ccc2=O)c1` [A140] returned an IC50 of 10 to 1000 nM.

`CCOC(=O)Nc1cccc(Cn2nc(-c3cccc(CC(=O)NCCN)c3)ccc2=O)c1` [A141] had an IC50 of 10 to 1000 nM.

For `CCOC(=O)Nc1cccc(Cn2nc(-c3ccc(CNC(=O)CCN4CCNCC4)cc3)ccc2=O)c1` [A142], the IC50 lay within 10 to 1000 nM.

In the case of `CCOC(=O)Nc1cccc(Cn2nc(-c3ccc(CNC(=O)CN4CCNCC4)cc3)ccc2=O)c1` [A143], the IC50 is 10 to 1000 nM.

Broadly, the IC50 is the midpoint of a concentration-inhibition curve. Lower therefore signals higher potency.

These data come from patent US8367668B2, “Pyridazinone derivatives” (Merck Patent Gesellschaft mit Beschränkter Haftung, priority 2007, dated 2013).
